Experimental findings from patent publication US10758634B2, “Compounds, compositions and associated methods using zirconium-89 in immuno-positron emission tomography” (Wake Forest University, priority 2016, dated 2020) are described below.

Each structure is given as a SMILES string. “Also recorded” adds a separate entry of the source. Some results are limits rather than exact numbers.

A short description of series [1]: Human serum stability (radio-TLC/ITLC, size exclusion chromatography). Type of series: in vitro ADME. Particulars: for degradation in human serum (radio-ITLC): human serum proteins, 7 days at 37° C.; for In vitro stability (Radio-TLC): Serum, n = 3. The protocol:
(§1) Lipophilicity (Log P) will be determined using the water:octanol method. Briefly, the water:octanol (1:1) solution containing the ^89Zr-complex (0.19 MBq) will be vortexed (5 min) and then centrifuged (5 minutes at 17,000 rpm). After separation, aliquots from each layer will be counted separately in the gamma counter, and Log P will be calculated as the ratio of counts in the octanol fraction to counts in the aqueous fraction. In vitro stability will be determined by incubating each ^89Zr complex at 37° C. in the presence 500 μL of DTPA (50 mM, pH 7 or pH 5), 500 μL of EDTA (50 mM, pH 7 or pH 5), or 500 μL of human serum (at 37° C.). The different pH environments will be meant to reflect the pH environments in normal blood (pH 7) or the lysosome (pH 5). Samples will be analyzed over the course of 7 days using radio-TLC and radio-HPLC.
To further characterize the stability of Zr-tetraazamacrocycle complexes and preliminarily assess their suitability for in vivo applications, each radiometal complex was incubated with human serum proteins for 7 days at 37° C.
Any ^89Zr transchelated to serum proteins is expected to be complexed by EDTA and move to the solvent front in this system.
For orientation: SEC sorts molecules by how far they enter the pores of the column.

A short description of series [2]: EDTA challenge, in vitro stability (radio-TLC). The following applies: for order of ^89Zr complex stability: based upon EDTA challenge studies. In kind it is physicochemical. On the procedure:
as §1, with “In vitro stability will be determined by incubating each ^89Zr complex at 37° C. in the presence 500 μL of DTPA (50 mM, pH 7 or pH 5), 500 μL of EDTA (50 mM, pH 7 or pH 5), or 500 μL of human serum (at 37° C.).” left out
Based upon our EDTA challenge studies, the order of ^89Zr complex stability can be described as ^89Zr-DOTA>>^89Zr-DOTP>^89Zr-DOTAM>^89Zr-DFO.

Series [3] can be described thus: Acute in vivo biodistribution of ^89Zr-complexes in normal mice. Also on record: species or system NIH Swiss mice. Particulars: for radioactivity retention in bone tissue over time: up to 72 h. The protocol:
NIH Swiss mice (n=6/time point) will be injected with the ^89Zr-AMC (0.56 MBq (15 μCi)), and then sacrificed at 1, 4, 24, 48 and 72 h post-injection (p.i.). Organs of interest will be removed, weighed and counted on a gamma counter. Percent injected dose per gram (% ID/g) and percent injected dose per organ (% ID/organ) will be counted and compared to a weighed, counted standard for all groups.
The in vivo stability of ^89Zr-DOTA, ^89Zr-DOTP, and ^89Zr-DOTAM were then evaluated in acute biodistribution studies using female NIH Swiss mice (6-8 wk old, n=6). […] While surfactant was used in the injection formulation for biodistribution studies, it is hypothesized that once in the blood stream, ^89Zr-DOTAM aggregates with serum proteins, which are deposited in these tissues during circulation.

A short description of series [4]: Lipophilicity (log P), water/octanol partition method. In kind it is physicochemical. On the procedure:
as §1

A short description of series [5]: DTPA challenge, in vitro stability (radio-TLC). Type of series: physicochemical. Particulars: 50 mM DTPA, n = 3. The protocol:
as §1

Series [6] in a line: Metal competition studies (demetallation by excess metal salts). The following applies: for complex remaining intact: 7 days. In kind it is physicochemical. The protocol:
Tetraazamacrocycles can chelate numerous, biologically relevant metal cations, and this property can potentially create a second mechanism for ^89Zr^4+ dissociation from its chelator in vivo. To assess the ability of the Zr-complexes to resist demetallation by another metal cation, metal competition studies were performed, in which the radiometal complex was mixed with an excess concentration of metal salts.

The nature of series [7]: Small animal PET imaging in normal mice. Type of series: in vivo. Particulars: for radioactivity at 4 h (static PET): 4 h after injection; for radioactivity at 24 h (static PET): 24 h after injection; for excretion route (PET): mouse, in vivo. On the procedure: Small animal PET/CT imaging will be conducted on the ^89Zr-AMCs identified from studies described above and in vivo biodistribution studies. NIH Swiss mice (n=6/cohort) will be injected with either ^89ZrCl4, ^89Zr-DFO (11 MBq (300 μCi)) or ^89Zr-AMC and imaged using 1 h dynamic scanning followed by static imaging at 4, 24, 48 h and 72 h p.i. […] All PET images will be co-registered with CT, to (a) allow more accurate selection of regions of interest to correspond with anatomy described by CT, and (b) reduce inaccuracies that result from partial volume effects, which can result in falsely low standard uptake values (SUVs) during data analysis. SUVs and the corresponding % ID/g will be determined from the co-registered PET/CT images using the formula SUV=[nCi/cc×animal weight/injected dose], and correlated to the biodistribution data.
Normal mice were injected with ^89Zr-DFO and ^89Zr-DOTA and dynamic PET imaging done from 0-60 minutes, followed by static imaging at 2, 4, and 24 hours after injection.

A short description of series [8]: EDTA challenge, in vitro stability (radio-TLC). Type of series: physicochemical. The following applies: 50 mM EDTA, pH 5.5, n = 3.
A short description of series [9]: In vitro solution behaviour (aggregation/precipitation). Type of series: physicochemical. Particulars: unless a low concentration of surfactant was included.

In the case of `[Cl][89Zr]([Cl])([Cl])[Cl]` [^89ZrCl4, reference compound], the “association with serum proteins (size exclusion chromatography)” value in series [1] (unchelated ^89Zr control) was “found to be associated with serum proteins”.
As to `O=P([O-])(O)CN1CCN(CP(=O)([O-])O)CCN(CP(=O)([O-])O)CCN(CP(=O)([O-])O)CC1.[89Zr+4]` [^89Zr-DOTP], the “order of ^89Zr complex stability” value in series [2] is on record as “^89Zr-DOTA>>^89Zr-DOTP>^89Zr-DOTAM>^89Zr-DFO”. In addition, the “degradation in human serum (radio-ITLC)” value in [1] was “no noticeable degradation”. Further, in [3] (n=6/group), the “bone retention compared to ^89Zr-DFO” value is recorded as “Bone retention is higher”; the “radioactivity retained in liver and kidney compared to ^89Zr-DFO” value was “retained less radioactivity in the liver and kidney”. Also, the “Lipophilicity (log P)” value in [4] was “most hydrophilic characteristics”.
Consider `O=C([O-])CN1CCN(CC(=O)[O-])CCN(CC(=O)[O-])CCN(CC(=O)[O-])CC1.[89Zr+4]` [^89Zr-DOTA], for which, in series [2] (100-, 500-, and 1000-fold excess of EDTA at pH 5 or pH 7 over 7 days), the “transchelation in EDTA challenge” value is given as “did not experience transchelation”. In [2], the “order of ^89Zr complex stability” value is given as “^89Zr-DOTA>>^89Zr-DOTP>^89Zr-DOTAM>^89Zr-DFO”. In addition, the “In vitro stability (Radio-TLC)” value in series [5] (pH 5.5, 1 h) is on record as 100%; in series [5] (pH 5.5, 7 d), 100%; in series [5] (pH 7.0, 1 h) it was 100%; in series [5] (pH 7.0, 7 d), 100%; in series [1] (1 h) it was 100%; in series [1] (7 d), 100%. Moreover, the “In vitro stability (Radio-TLC)” value in [8] (1 h) and in [8] (7 d) was 100% throughout. The “degradation in human serum (radio-ITLC)” value in series [1] is reported as “no noticeable degradation”. The “demetallation in metal competition” value in series [6] (excess concentration of metal salts, 7-day experiment) is “No demetallation”. Besides, the “reduction in radioactivity accumulation in the liver, kidney, and bone” value in series [3] (72 hours, pilot data) was at least 10%. For the same molecule, the “radioactivity retained in blood, liver, kidney and bone compared to ^89Zr-DOTP” value in series [3] (intravenous injection) was “retained significantly less radioactivity in their blood, liver, kidney and bone tissue”. In series [3] (normal mice, n=6/group), the blood clearance entry is reported as “rapid blood clearance”. The “radioactivity retained in liver, kidney and bone compared to ^89Zr-DFO” value in [3] (normal mice, n=6/group) was “lower radioactivity retention in liver, kidney, and bone tissues; also recorded: retained less radioactivity in the liver, kidney and bone”. In [3], the “radioactivity retention in bone tissue over time” value is listed as “remained low with no statistically significant changes at any time point”. In addition, the “radioactivity at 4 h (static PET)” value in series [7] is “nearly all the radioactivity was excreted”. In series [7], the “radioactivity at 24 h (static PET)” value is reported as “barely above background levels”. Further, the “radioactivity in kidney and bone compared to ^89Zr-DFO (PET)” value in series [7] (dynamic PET 0-60 minutes) is “much lower”. In series [7], the “excretion route (PET)” value is “excreted renally”. In addition, the “Lipophilicity (log P)” value in [4] is reported as “most hydrophilic characteristics”.
In the case of `CC(=O)N([O-])CCCCCNC(=O)CCC(=O)N([O-])CCCCCNC(=O)CCC(=O)N([O-])CCCCCN.[89Zr+4]` [^89Zr-DFO, reference compound], the “loss of metal ions in EDTA challenge” value in series [2] (1000-fold excess of EDTA, after 3 h) is listed as “completely lost metal ions”. The “order of ^89Zr complex stability” value in [2] was “^89Zr-DOTA>>^89Zr-DOTP>^89Zr-DOTAM>^89Zr-DFO”. Further, the “In vitro stability (Radio-TLC)” value is recorded as 7.3 ± 0.8% in series [5] (pH 5.5, 1 h); 0% in [5] (pH 5.5, 7 d); 90.3 ± 0.5% in series [5] (pH 7.0, 1 h); 40.6 ± 0.5% in series [5] (pH 7.0, 7 d); 100% in [1] (1 h); 99.3 ± 0.1% in series [1] (7 d). Besides, the “In vitro stability (Radio-TLC)” value came out at 6.3 ± 0.8% in series [8] (1 h) and 0% in series [8] (7 d). In [1], the “degradation in human serum (radio-ITLC)” value is “no noticeable degradation”. For the same molecule, the results for the complex remaining intact in series [6] (challenged with Fe^3+) and in series [6] (challenged with Ga^3+) were 33.9% and 72.6%, respectively. Moreover, the blood clearance result in series [3] (normal mice, n=6/group) was “rapid blood clearance”. In addition, in series [3], the “radioactivity retention in bone tissue over time” value was “increases over time”. For the same molecule, the “radioactivity at 4 h (static PET)” value in series [7] is on record as “more radioactivity accumulated in the kidneys”. The “radioactivity at 24 h (static PET)” value in series [7] is reported as “still visible in static images”. Moreover, the “excretion route (PET)” value in series [7] is “excreted renally”.
`NC(=O)CN1CCN(CC(N)=O)CCN(CC(N)=O)CCN(CC(N)=O)CC1.[89Zr+4]` [^89Zr-DOTAM]: in [2], the “order of ^89Zr complex stability” value is on record as “^89Zr-DOTA>>^89Zr-DOTP>^89Zr-DOTAM>^89Zr-DFO”. For the same molecule, the “degradation in human serum (radio-ITLC)” value in [1] is “no noticeable degradation”. Besides, in series [3] (female NIH Swiss mice, not excreted over 72 hour time course), the “radioactivity retained in liver and spleen” value is “retained elevated levels of radioactivity in liver and spleen tissues”. Also, the “behaviour in solution in vitro” value in series [9] is “aggregated and precipitated out of solution”.
